According to patent publication US12344631B2, “C17 polar-substituted heteroaromatic synthetic triterpenoids and methods of use thereof” (REATA PHARMACEUTICALS, INC., priority 2019, dated 2025):

Assays:
[1] = tested on: AREc32 reporter cell line (antioxidant response element of rat Gsta2, Nrf2 target gene); assay: AREc32 luciferase reporter activation; type: cell-based, human; conditions: for AREc32 EC2X Relative to RTA 402 (fold) (Mean ± SD): average of ratios from replicate experiments, benchmark RTA 402; for AREc32 Relative to CC in Same Experiment (Mean ± SD): average of ratios from experiments with direct comparisons; for EC (2-fold): human, Arec32, 19 h, concentration increasing luminescence signal 2-fold above vehicle, nineteen hours, read-out: AREc32 EC2X (nM) (Mean ± SD)
Description: […] The effect of several compounds disclosed herein on luciferase reporter activation was assessed in the AREc32 reporter cell line (see Table 10 and Table 11). This cell line is derived from human breast carcinoma MCF-7 cells and is stably transfected with a luciferase reporter gene under the transcriptional control of eight copies of the antioxidant response element from the rat Gsta2 gene, an Nrf2 target gene ([…] et al., 1990). […] Twenty-four hours after plating, cells were treated with vehicle (DMSO) or test compounds at concentrations ranging from 0.03 to 1000 nM for nineteen hours. Media was removed and 100 μL of 1:1 mixture of the One-Glo Luciferase assay reagent and culture medium was added to each well. After incubation for 5 min at room temperature, the luminescence signal was measured on a PHERAstar plate reader. The EC2X value was determined using Excel and GraphPad Prism software. The fold increase in luminescence signal for cells treated with each concentration of compound relative to cells treated with vehicle was determined and a dose-response curve was generated. The dose-response curve was fit using nonlinear regression analysis and used to extrapolate the EC2X value.

RAW 264.7 cells = assay: Nitric oxide suppression assay (IFNγ-induced NO production); type: cell-based, mouse; conditions: for IC50: Mus musculus, RAW264.7, RAW 264.7 cells, 2 h pretreatment, 20 ng/mL interferon gamma 24 h, nitrite by Griess, read-out: NO IC50 (nM) (Mean ± SD); for NO IC50 Relative to RTA 402 (fold) (Mean ± SD): average of ratios from replicate experiments, benchmark RTA 402
Description: Tissue Culture. RAW 264.7, a mouse macrophage cell line, was obtained from American Type Culture Collection (Manassas VA) and maintained in the log phase of growth in Roswell Park Memorial Institute Medium 1640 (RPMI 1640) supplemented with 10% heat inactivated fetal bovine serum (FBS) and 1% penicillin-streptomycin. Cells were cultured and maintained in a humidified incubator at 37° C. under 5% CO2. Cells were sub-cultured every 3 days. […] All cell culture supplies were obtained from Life Technologies (Grand Island, NY) and VWR (Radnor, PA). Nitric Oxide Suppression Assay. RAW 264.7 cells were plated 1 day in advance of experimental treatments at a concentration of 30,000 cells per well onto Falcon-96 well clear bottom plates (Corning, NY) in a total volume of 200 μL per well using RPMI 1640 supplemented with 0.5% fetal bovine serum and 1% penicillin-streptomycin. The next day, cells were pretreated with compounds serially diluted from 1000× stocks. All compounds were dissolved in dimethyl sulfoxide (DMSO) at 10 mM stock solutions. Compounds were subsequently diluted in DMSO and RPMI 1640. Each well received a final concentration of 0.1% DMSO. Cells were pretreated for 2 hours and incubation at 37° C., followed by treatment with 20 ng/mL of interferon gamma (R&D Systems, Minneapolis, MN) per well for 24 hours. […] Afterwards, 50 μL of cell culture supernatant was transferred from each well into a new Falcon-96 well clear bottom plate. […] Afterwards, air bubbles were removed using ethanol vapor and absorbance was measured using a Spectramax M2e plate reader with a wavelength set to 525 nm. Viability was assessed using WST-1 cell proliferation reagent from Roche (Basel, Switzerland). After media was removed for the Nitric Oxide suppression assay, 15 μL of WST-1 reagent was added to each well of cells. Plates were briefly mixed on an orbital shaker and the cells were incubated at 37° C. for 30 minutes. Absorbance was measured using a Spectramax M2e plate reader with wavelengths set to 440 nm and 700 nm. For the ability of compounds to suppress the increase in nitric oxide release caused by interferon gamma, the absolute amount of nitrite that was produced in each well was extrapolated from the nitrite standards using a linear regression fit. All values were then normalized to the DMSO-interferon gamma treated wells and plotted as percent nitric oxide. IC50 values were calculated with a dependence on WST1 viability using Excel and/or GraphPad Prism (San Diego, CA).

CYP3A4 = CYP3A4 (Homo sapiens, UniProt P08684); assay: CYP3A4 (midazolam) inhibition in human liver microsomes; conditions: for CYP3A4 inhibition compared with historical data for RTA 402 and RTA 408: comparable conditions (FIG. 1); for inhibition at 10 min, 1 μM: human, probe midazolam (5 μM); for inhibition at 10 min, 1 μM / CYP3A4 (Midazolam) % Inhibition: human liver microsomes; for CYP3A4 inhibition lower than the corresponding unsubstituted compound: vs CC2, CC1 or CC3; for CYP3A4 inhibition lower than the corresponding unsubstituted compound / CYP3A4 (Midazolam) % Inhibition: 1 μM; for CYP3A4 (Midazolam) % Inhibition: historical data performed under comparable conditions
[2] = tested on: AML-12 hepatocyte cell line; assay: Glutathione assay (total glutathione, GSH-Glo); type: cell-based, mouse; conditions: for EC50: Mus musculus, AML12, AML-12 cells, 24 hours, total glutathione, read-out: GSH EC50 (nM) (Mean ± SD); for GSH EC50 Relative to RTA 402 (fold) (Mean ± SD): benchmark RTA 402
Description: The effect of compound treatment on total glutathione levels was evaluated in the mouse AML-12 hepatocyte cell line. Glutathione—a tripeptide consisting of cysteine, glutamate, and glycine—is the major thiol-containing protein within the cell and regulates cellular redox balance. Glutathione also plays important roles in detoxification, protein glutathionylation, and iron-sulfur cluster biogenesis (Bachhawat and Yadav, 2018). Nrf2 regulates the expression of many genes involved in glutathione synthesis and metabolism, including both subunits of glutamate cysteine ligase (GCL), the enzyme that catalyzes the rate limiting step of glutathione biosynthesis (Thimmulappa et al., 2002). […] The next day, cells were treated with vehicle (DMSO) or test compound (0.03 nM to 1000 nM). Each well received a final concentration of 0.1% DMSO. Cells were incubated at 37° C., 5% CO2 for 24 hours. Total glutathione concentrations were measured using the GSH-Glo Glutathione Assay kit (Promega) according to the manufacturer's instructions. Briefly, a standard curve was prepared by serially diluting the provided glutathione solution. […] After a 30-minute incubation at room temperature, 100 μL of Luciferin detection reagent was added to all sample and standard wells and incubated for 15 minutes. Luminescence was measured using a PHERAstar plate reader. The EC50 value was determined using Excel and GraphPad Prism software. The basal concentration of glutathione was set to 0% and the highest concentration of glutathione produced following treatment with a test compound was set to 100% and a dose-response curve was generated. The dose-response curve was fit using nonlinear regression analysis and used to extrapolate the EC50 value.

Sequence of CYP3A4 (P08684 whole entry): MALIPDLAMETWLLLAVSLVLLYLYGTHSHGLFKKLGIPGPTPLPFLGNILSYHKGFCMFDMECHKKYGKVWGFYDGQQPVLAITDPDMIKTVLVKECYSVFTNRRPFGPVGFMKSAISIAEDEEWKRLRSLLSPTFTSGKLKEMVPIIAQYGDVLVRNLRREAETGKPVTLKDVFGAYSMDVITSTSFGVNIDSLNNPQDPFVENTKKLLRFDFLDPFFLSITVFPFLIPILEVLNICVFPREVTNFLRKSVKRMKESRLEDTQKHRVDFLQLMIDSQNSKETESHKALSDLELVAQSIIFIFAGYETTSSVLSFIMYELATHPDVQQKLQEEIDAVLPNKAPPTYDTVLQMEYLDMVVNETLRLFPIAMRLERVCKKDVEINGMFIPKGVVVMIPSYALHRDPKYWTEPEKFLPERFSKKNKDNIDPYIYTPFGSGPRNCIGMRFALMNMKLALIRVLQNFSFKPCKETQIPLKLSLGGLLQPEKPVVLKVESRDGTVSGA

Structure (SMILES)	AREc32 EC2X Relative to RTA 402 (fold) (Mean ± SD) [1]	AREc32 Relative to CC in Same Experiment (Mean ± SD) ([1]; comparison compound CC2)	EC (2-fold) [1] [nM]	IC50 (RAW 264.7 cells) [nM]	NO IC50 Relative to RTA 402 (fold) (Mean ± SD) (RAW 264.7 cells)	CYP3A4 inhibition compared with historical data for RTA 402 and RTA 408 (CYP3A4)	inhibition at 10 min, 1 μM (CYP3A4) [%]	CYP3A4 inhibition lower than the corresponding unsubstituted compound (CYP3A4) [%]	EC50 [2] [nM]	GSH EC50 Relative to RTA 402 (fold) (Mean ± SD) [2]	CYP3A4 (Midazolam) % Inhibition (CYP3A4) [%]	AREc32 Relative to CC in Same Experiment (Mean ± SD) ([1]; comparison compound CC3)
CC1(C)CC[C@]2(c3noc(CF)n3)CC[C@]3(C)[C@H](C(=O)C=C4[C@@]5(C)C=C(C#N)C(=O)C(C)(C)[C@@H]5CC[C@]43C)[C@@H]2C1 [Compound T1]	0.46 ± 0.13	0.62 ± 0.07	6.2 ± 1.37	1.24	0.52 ± 0.12	reduced CYP3A4 inhibition	29.1	36	0.57 ± 0.22	0.35 ± 0.12	–	–
CC1(C)CC[C@]2(c3noc(CN)n3)CC[C@]3(C)[C@H](C(=O)C=C4[C@@]5(C)C=C(C#N)C(=O)C(C)(C)[C@@H]5CC[C@]43C)[C@@H]2C1 [Compound T2]	0.28 ± 0.04	0.43 ± 0.00	3.67 ± 0.28	1.15	0.38 ± 0.09	reduced CYP3A4 inhibition	21.4	53	1.21 ± 1.15	0.47 ± 0.38	–	–
CC1(C)CC[C@]2(NC(=O)C(C)(F)F)CC[C@]3(C)[C@H](C(=O)C=C4[C@@]5(C)C=C(C#N)C(=O)C(C)(C)[C@@H]5CC[C@]43C)[C@@H]2C1 [RTA 408, omaveloxolone, reference compound]	–	–	–	–	–	–	–	–	–	–	56.6	–
COCCc1nc([C@]23CCC(C)(C)C[C@H]2[C@H]2C(=O)C=C4[C@@]5(C)C=C(C#N)C(=O)C(C)(C)[C@@H]5CC[C@@]4(C)[C@]2(C)CC3)no1 [Compound T6]	1.77 ± 0.15	–	17.66 ± 0.1	2.95 ± 0.11	0.79 ± 0.29	–	–	–	2.9 ± 0.96	1.07 ± 0.28	–	–
CCc1noc([C@]23CCC(C)(C)C[C@H]2[C@H]2C(=O)C=C4[C@@]5(C)C=C(C#N)C(=O)C(C)(C)[C@@H]5CC[C@@]4(C)[C@]2(C)CC3)n1 [Compound T23]	1.43 ± 0.26	2.41 ± 0.42	20.2 ± 2.51	4.85	1.93 ± 0.54	–	–	–	3.26 ± 0.51	2.05 ± 0.44	–	–
CC1(C)CC[C@]2(c3noc(C(F)F)n3)CC[C@]3(C)[C@H](C(=O)C=C4[C@@]5(C)C=C(C#N)C(=O)C(C)(C)[C@@H]5CC[C@]43C)[C@@H]2C1 [Compound T41]	1.52 ± 0.19	–	24.2 ± 3.36	9.84 ± 3.52	2.79 ± 0.64	–	–	–	4.85 ± 0.36	2.38 ± 0.29	–	–
CC1(C)CC[C@]2(c3nc(C(F)(F)F)no3)CC[C@]3(C)[C@H](C(=O)C=C4[C@@]5(C)C=C(C#N)C(=O)C(C)(C)[C@@H]5CC[C@]43C)[C@@H]2C1 [Compound T22]	3.45 ± 0.69	–	54.6 ± 8.83	23.9	7.71 ± 2.33	–	–	–	17.6 ± 0.59	8.72 ± 1.98	–	–
Cc1nc([C@]23CCC(C)(C)C[C@H]2[C@H]2C(=O)C=C4[C@@]5(C)C=C(C#N)C(=O)C(C)(C)[C@@H]5CC[C@@]4(C)[C@]2(C)CC3)no1 [Compound T20]	1.50 ± 0.18	–	21.5 ± 2.85	3.79	1.30 ± 0.26	–	–	–	1.66 ± 0.66	0.96 ± 0.15	–	–
CCc1noc([C@]23CCC(C)(C)C[C@H]2[C@H]2C(=O)C=C4[C@@]5(C)C=C(C#N)C(=O)[C@@H](C)[C@@H]5CC[C@@]4(C)[C@]2(C)CC3)n1 [Compound T37]	0.69 ± 0.06	–	10.3 ± 1.35	3.45 ± 1.87	0.76 ± 0.12	–	–	–	1.69 ± 0.19	0.88 ± 0.13	–	1.58 ± 0.16
CC1(C)CC[C@]2(c3nnc(C(F)(F)F)o3)CC[C@]3(C)[C@H](C(=O)C=C4[C@@]5(C)C=C(C#N)C(=O)C(C)(C)[C@@H]5CC[C@]43C)[C@@H]2C1 [Compound T45]	1.95 ± 0.57	–	29.1 ± 2.09	12.9 ± 6.38	3.81 ± 0.34	–	–	–	8 ± 1.37	4.14 ± 0.35	–	–
COC(=O)[C@]12CCC(C)(C)C[C@H]1[C@H]1C(=O)C=C3[C@@]4(C)C=C(C#N)C(=O)C(C)(C)[C@@H]4CC[C@@]3(C)[C@]1(C)CC2 [RTA 402, Bardoxolone methyl, reference compound]	–	–	–	–	–	–	–	–	–	–	48.4	–
Cn1nnc([C@]23CCC(C)(C)C[C@H]2[C@H]2C(=O)C=C4[C@@]5(C)C=C(C#N)C(=O)C(C)(C)[C@@H]5CC[C@@]4(C)[C@]2(C)CC3)n1 [Compound T21]	1.67 ± 0.15	–	16.2 ± 4.2	1.89 ± 0.67	0.76 ± 0.36	–	–	–	3.18 ± 2.22	0.95 ± 0.34	–	–
CC1(C)CC[C@]2(c3nc(CCO)no3)CC[C@]3(C)[C@H](C(=O)C=C4[C@@]5(C)C=C(C#N)C(=O)C(C)(C)[C@@H]5CC[C@]43C)[C@@H]2C1 [Compound T13]	0.37 ± 0.04	0.44 ± 0.07	3.53 ± 0.98	0.56	0.22 ± 0.07	–	–	–	2.04 ± 1.94	0.55 ± 0.33	–	–
